Data as given in patent US6576671B1, “Aminotetralin derivatives for the therapy of cardiovascular diseases” (Chiese Farmaceutici S.p.A., priority 1999, dated 2003).

Columns and labels:
dopamine receptor = conditions: cited from earlier work
α2 adrenergic receptors [1] = experiment: α2 adrenergic receptor binding, [3H]-rauwolscine, rat cerebral cortex; conditions: for IC50: rat cerebral cortex, read-out: IC50, 50% inhibition of [3H]-rauwolscine specific binding
Experimental: The affinity of CHF 1024 and CHF 1035 for α2, adrenergic receptors was tested on human platelets and on rat cerebral cortex.
(§1) The antagonist [^3H]-rauwolscine was used as marker of the receptor, being its binding reversible, saturable and specific.
Values are expressed as IC50=molar concentration of drug required for 50% inhibition of [^3H]-rauwolscine specific binding.

[2] = biological target: peripheral DA2 dopaminergic receptors (Oryctolagus cuniculus, UniProt G1T1Q0); experiment: Peripheral DA2 dopaminergic activity in electrically stimulated rabbit rectococcygeus muscle; conditions: for IC50: read-out: IC50, 50% inhibition of the electrically induced contraction
Chain of peripheral DA2 dopaminergic receptors (Oryctolagus cuniculus, UniProt G1T1Q0) (G1T1Q0 1-443): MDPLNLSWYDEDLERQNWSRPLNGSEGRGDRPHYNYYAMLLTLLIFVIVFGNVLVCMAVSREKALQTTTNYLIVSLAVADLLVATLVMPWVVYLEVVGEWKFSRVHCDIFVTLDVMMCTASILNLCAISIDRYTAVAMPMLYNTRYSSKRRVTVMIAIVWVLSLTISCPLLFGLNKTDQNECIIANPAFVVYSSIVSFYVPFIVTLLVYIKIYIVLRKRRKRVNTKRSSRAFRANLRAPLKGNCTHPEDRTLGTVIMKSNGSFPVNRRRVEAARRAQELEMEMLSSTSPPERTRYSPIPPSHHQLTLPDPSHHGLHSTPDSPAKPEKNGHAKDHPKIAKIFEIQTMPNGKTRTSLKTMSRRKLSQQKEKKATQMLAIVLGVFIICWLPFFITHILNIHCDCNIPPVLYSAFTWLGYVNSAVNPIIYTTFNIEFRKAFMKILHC
From the text: The activity of CHF 1024 and CHF 1035 on peripheral DA2 dopaminergic receptors has been tested in the electrically stimulated rabbit rectococcygeus muscle.

α2-adrenergic receptors = experiment: α2-adrenergic activity in isolated neuronally-stimulated rat vas deferens; conditions: for IC50: isolated neuronally-stimulated rat vas deferens, read-out: IC50, 50% inhibition of the electrically induced contraction
anesthetized rats = experiment: In vivo cardiovascular effects in anesthetized rats; parameters: species or system rat; conditions: for mean arterial pressure, change from basal value: 0.69 µg/kg/min i.v.
Experimental: Male albino rats (Sprague Dawley, 350-400 g) were anesthetized by sodium pentobarbital (60 mg/kg) and maintained by i.v. infusion (6 mg/h). The trachea was cannulated to facilitate spontaneous respiration and body temperature was maintained at 37 C. Homoiothermic Blanket Control System (Harvard, England).
The right femoral artery was cannulated for arterial blood pressure measurement and left jugular vein or duodenum were cannulated for drug administration. Mean arterial pressure and heart rate were continuously monitored by pressure transducer and medium gain amplifier triggered by the ECG signal, respectively. […]
CHF 1035 was administered intraduodenally (1 mg/kg).
The response to […] was determined in the absence and in the presence of the selective β2-adrenoceptor antagonist ICI 118.551 (0.2 mg/kg i.v.) and the selective DA2-dopaminergic antagonist domperidone (0 3 mg/kg i.v.) both alone and in combination. The antagonists were administered 10 min before the i.d. drug administration.

[3] = test system: rats with left ventricular dysfunction; experiment: Rat model of left ventricular dysfunction after coronary artery occlusion, urine catecholamine excretion; format: in vivo
Experimental: Myocardial infarction (MI) was induced by left coronary artery ligation in 134 rats, and 6 were left unoperated. After two months, the survived animals with ECG evidence of MI entered a four-week treatment phase. They were randomly allocated to one of the following treatments: 1) delapril 6 mg.kg^−1.day^−1, (n=12), 2) delapril 6 mg.kg^−1.day^−1 and CHF 1024 0.33 mg.kg^−1.day^−1(n=13), 3) vehicle (0.05% ascorbic acid; n=12).
Delapril was dissolved in drinking water at the final concentration of 0.043 mg/ml. The delapril solutions were prepared, freshly every third day and their concentration adjusted to body weight every 15 days to obtain an average dose of 6 mg.kg^−1.day^−1.
CHF 1024 was administered continuously for four weeks through osmotic minipumps implanted subcutaneously behind the neck.
Concentrated solutions of CHF 1024 were dissolved in 10% ascorbic acid in distilled water at a final concentration of 40 mM (mean delivery rate 0.33 mg.kg^−1.day^−1).
At week 4 of treatment, the rats were placed in individual metabolic cages to collect 24-hour urine for measuring catecholamine excretion. […] Only rats with mean infarct size >12%, histologically determined in 6-10 serial cross-sections as percentage of LV area, were analyzed. The numbers of animals analyzed in each experimental group were 6 (vehicle), 6 (delapril alone), 8 (delapril and CHF 1024) and 6 non-operated.

α2 adrenergic receptors [4] = biological target: T1, α2 adrenergic receptors (Homo sapiens, UniProt P08913); experiment: α2 adrenergic receptor binding, [3H]-rauwolscine, human platelets
T1 construct: from tissue; host or cells: human platelets
T1 sequence (P08913 1-465): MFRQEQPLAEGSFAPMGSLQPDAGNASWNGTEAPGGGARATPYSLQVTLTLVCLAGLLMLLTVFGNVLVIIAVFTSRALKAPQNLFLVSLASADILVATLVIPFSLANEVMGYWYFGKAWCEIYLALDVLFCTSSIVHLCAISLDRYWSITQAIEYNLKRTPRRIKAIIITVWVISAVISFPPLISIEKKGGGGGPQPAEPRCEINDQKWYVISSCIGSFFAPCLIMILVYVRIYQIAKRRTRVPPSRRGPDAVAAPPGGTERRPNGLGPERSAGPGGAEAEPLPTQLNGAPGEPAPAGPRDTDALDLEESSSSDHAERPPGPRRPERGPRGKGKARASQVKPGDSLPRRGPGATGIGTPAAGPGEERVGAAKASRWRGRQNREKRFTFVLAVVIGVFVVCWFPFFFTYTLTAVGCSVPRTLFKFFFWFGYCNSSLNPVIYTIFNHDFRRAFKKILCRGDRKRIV
From the text: as §1

[5] = biological target: T2, peripheral DA2 dopaminergic receptors (Bos taurus, UniProt P20288); experiment: Peripheral DA2 dopaminergic binding test, [3H](-)sulpiride, bovine adrenal cortex
T2 construct: peripheral DA2 dopaminergic receptors was tested on bovine adrenal cortex; from tissue; host or cells: bovine adrenal cortex
T2 sequence (P20288 whole entry): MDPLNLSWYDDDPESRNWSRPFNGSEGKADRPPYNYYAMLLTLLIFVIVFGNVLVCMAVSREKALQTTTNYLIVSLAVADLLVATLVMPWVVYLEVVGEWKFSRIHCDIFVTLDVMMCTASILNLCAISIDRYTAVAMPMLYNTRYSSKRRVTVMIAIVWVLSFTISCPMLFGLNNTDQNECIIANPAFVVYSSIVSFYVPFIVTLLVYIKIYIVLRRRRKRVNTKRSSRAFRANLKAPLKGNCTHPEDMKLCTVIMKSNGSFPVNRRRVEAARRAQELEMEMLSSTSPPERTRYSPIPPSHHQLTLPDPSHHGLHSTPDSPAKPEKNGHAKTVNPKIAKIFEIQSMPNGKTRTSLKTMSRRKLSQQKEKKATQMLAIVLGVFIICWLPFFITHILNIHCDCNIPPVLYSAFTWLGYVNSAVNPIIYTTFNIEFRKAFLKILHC
Experimental: The affinity of CHF 1024 for peripheral DA2 dopaminergic receptors was tested on bovine adrenal cortex evaluating its effect on the interaction of [^3H](-)sulpiride with the specific binding sites of this system.

dogs = conditions: approximately 10 μg/kg per minute continuous intravenous infusion; cited from earlier work

In the case of `CNC1CCc2c(ccc(O)c2O)C1` (stereo not drawn) [CHF 1024, 5,6-dihydroxy-2-methylaminotetralin], the “dopamine receptor agonist activity in relaxing splenic artery strips” value (dopamine receptor) is listed as “inactive”, the “affinity higher than dopamine” value (α2 adrenergic receptors [1]; cerebral cortex) is listed as 15 times and the IC50 (α2 adrenergic receptors [1]) is listed as 262 nM. The “effect in presence of selective DA2-antagonist domperidone” value [2] was “competitively antagonized”, the “more potent than dopamine” value [2] was “approximately 3 times” and the IC50 [2] was 37.3 nM. For the same compound, the IC50 (α2-adrenergic receptors) was 270 nM, the “more potent than dopamine” value (α2-adrenergic receptors; rat vas deferens) was “about 20 times” and the “mean arterial pressure, change from basal value” (“mean arterial pressure, change” below) (anesthetized rats; 5 min after infusion start) was −24.0. For the same compound, the “mean arterial pressure, change” value (anesthetized rats; 5 min after infusion stop) was −12.7, the “mean arterial pressure, change” value (anesthetized rats; 30 min after infusion start) was −25.7 and the “mean arterial pressure, change” value (anesthetized rats; 30 min after infusion stop) was −6.7. The “effect on mean arterial pressure” value (anesthetized rats; intravenous administration, persists after infusion discontinuation) was “dose-dependent reduction”, the heart rate (anesthetized rats; intravenous infusion, in spite of marked hypotension) was “no increase” and the “urine norepinephrine excretion, reduced with respect to the vehicle group” value ([3]; CHF 1024 0.33 mg.kg^−1.day^−1 s.c. minipump added to delapril 6 mg.kg^−1.day^−1, week 4) was 40%. The IC50 (α2 adrenergic receptors [4]; human platelets, read-out: IC50, 50% inhibition of [3H]-rauwolscine specific binding) was 339 nM, the “affinity higher than dopamine” value (α2 adrenergic receptors [4]; platelets) was 9 times and the IC50 [5] was 21 nM. For the same compound, the “affinity for DA2 receptors higher than dopamine” value ([5]; bovine adrenal cortex) was 11 times.
For `CCOC(=O)[C@H](CCc1ccccc1)N[C@@H](C)C(=O)N(CC(=O)O)C1Cc2ccccc2C1` [delapril, reference compound], the urine norepinephrine excretion ([3]; delapril alone 6 mg.kg^−1.day^−1, week 4, 24-hour urine) was “unaffected”.
For `Br.CNC1CCc2c(ccc(O)c2O)C1` (stereo not drawn) [5,6-dihydroxy-2-methylaminotetralin hydrobromide], the coronary blood flow (dogs) is listed as “substantial increase”.
Compound `NCCc1ccc(O)c(O)c1` [DOPAMINE, dopamine, reference compound] has an IC50 (α2 adrenergic receptors [1]) of 4060 nM, an IC50 [2] of 99.3 nM and an IC50 (α2-adrenergic receptors) of 4910 nM.
